Results taken from patent US20240199585A1, “SOLID FORMS OF (3R)-N-[2-CYANO-4-FLUORO-3-(3-METHYL-4-OXO-QUINAZOLIN-6-YL)OXY-PHENYL]-3-FLUORO-PYRROLIDINE-1-SULFONAMIDE” (Hoffmann-La Roche Inc., priority 2021, published 2024).

Legend:
[1] = cited from earlier work
[2] = Moisture sorption/desorption (dynamic vapour sorption, DVS); assay type: physicochemical; settings: for Masschange (DVS): from 0%-90% RH; for Hygroscopicity: increase in mass from 0%-RH to 90%-RH
Experimental: Moisture sorption/desorption data was collected on a DVS Advantage, a DVS Adventure, or a DVS Intrinsic (SMS Surface Measurements Systems) moisture balance system. The sorption/desorption isotherms were measured stepwise in a range from 0%-RH to 90%-RH at typically 25° C. A weight change of typically <0.001%/min was chosen as criterion to switch to the next level of relative humidity (with a maximum equilibration time of typically 24 hours, if the weight change criterion was not met). The data were corrected for the initial moisture content of the samples by taking the weight after drying of the samples at 0%-RH as zero point.
The hygroscopicity of a given substance was characterized (by close analogy with the European Pharmacopoeia) by the increase in mass when the relative humidity was raised from 0%-RH to 90%-RH: […]

[3] = High humidity storage experiments; assay type: physicochemical

Structure (SMILES) | brain permeability [1] | Masschange (DVS) [2] | Hygroscopicity [2] | Solid form change during the DVS cycle ([2]; sorption/desorption cycle 0%-90% RH) | Solid form stability in high humidity storage [3]
COC(=O)N[C@@H](C)CNc1nccc(-c2cn(C(C)C)nc2-c2cc(Cl)cc(NS(C)(=O)=O)c2F)n1 [Encorafenib] | very poor | – | – | – | –
Cn1cnc2ccc(Oc3c(F)ccc(NS(=O)(=O)N4CC[C@@H](F)C4)c3C#N)cc2c1=O [polymorphic form A, (3R)-N-[2-cyano-4-fluoro-3-(3-methyl-4-oxo-quinazolin-6-yl)oxy-phenyl]-3-fluoro-pyrrolidine-1-sulfonamide] | – | < 0.2% | not hygroscopic | no solid form change | –
Cn1cnc2ccc(Oc3c(F)ccc(NS(=O)(=O)N4CC[C@@H](F)C4)c3C#N)cc2c1=O [amorphous form, (3R)-N-[2-cyano-4-fluoro-3-(3-methyl-4-oxo-quinazolin-6-yl)oxy-phenyl]-3-fluoro-pyrrolidine-1-sulfonamide] | – | ~3.8% | hygroscopic (weight increase 2.0% ≤ Dm < 15.0%) | – | Recrystallization to Form A
CCCS(=O)(=O)Nc1ccc(F)c(C(=O)c2c[nH]c3ncc(-c4ccc(Cl)cc4)cc23)c1F [Vemurafenib] | very poor | – | – | – | –
CC(C)(C)c1nc(-c2cccc(NS(=O)(=O)c3c(F)cccc3F)c2F)c(-c2ccnc(N)n2)s1 [Dabrafenib] | very poor | – | – | – | –
